Laboratory results reported in ChEMBL document CHEMBL5143614, “Structure-activity relationship of 2-aminodibenzothiophene pharmacophore and the discovery of aminobenzothiophenes as potent inhibitors of Mycobacterium smegmatis” (Bioorg Med Chem Lett, 2022).
≈ marks a conversion by molar mass, not a printed value.

Key:
[1] = system: Mycolicibacterium smegmatis; experiment: Antitubercular activity against Mycobacterium smegmatis ATCC 700084 after 48 hrs by microdilution assay; type: functional
[2] = system: Mycobacterium tuberculosis; experiment: Antitubercular activity against Mycobacterium tuberculosis H37Rv; type: functional
RWPE-1 = experiment: Cytotoxicity against human RWPE-1 cells assessed as cell viability at 50 ug/ml after 72 hrs by MTT assay; type: toxicity, cell-based; details: rwpe-1, 72 h, dose 50 µg/ml

| SMILES | MIC [1] | MIC [2] | Activity (RWPE-1) |
| --- | --- | --- | --- |
| CN(c1ccccc1)c1ccc2sc3ccccc3c2c1 | > 100 µg/mL | – | – |
| Nc1ccc2c(c1)-c1ccccc1C2 | 25 µg/mL (≈ 138 µM) | 32 µg/mL (≈ 177 µM) | – |
| Nc1ccc2c(c1)-c1ccccc1S2(=O)=O | > 100 µg/mL | – | – |
| CCCCCCNc1ccc2sc3ccccc3c2c1 | > 100 µg/mL | – | – |
| Nc1ccc2sccc2c1 | 0.78 µg/mL (≈ 5.23 µM) | – | Toxic |
| O=S(=O)(Nc1ccc2sc3ccccc3c2c1)c1ccccc1 | > 100 µg/mL | – | – |
| Nc1ccc2[nH]c3ccccc3c2c1 | > 100 µg/mL | 16 µg/mL (≈ 87.8 µM) | – |
| OB(O)c1cccc2c1sc1ccccc12 | > 100 µg/mL | – | – |
| Nc1ccc2ccsc2c1 | 0.78 µg/mL (≈ 5.23 µM) | – | Toxic |
| CCNc1ccc2sc3ccccc3c2c1 | > 100 µg/mL | – | – |
| Nc1ccc2oc3ccccc3c2c1 | 3.13 µg/mL (≈ 17.1 µM) | 64 µg/mL (≈ 349 µM) | Toxic |
| CCN(CC)c1ccc2sc3ccccc3c2c1 | > 100 µg/mL | – | – |
| Nc1ccc2c(c1)-c1cc(N)ccc1S2(=O)=O | > 100 µg/mL | < 2 µg/mL | – |
| c1ccc2c(c1)sc1ccc(N3CCCC3)cc12 | > 100 µg/mL | – | – |
| Nc1ccc2sc3ccccc3c2c1 | 3.13 µg/mL (≈ 15.7 µM) | 128 µg/mL (≈ 642 µM) | Toxic |
| c1ccc2c(c1)sc1ccc(-n3cccc3)cc12 | > 100 µg/mL | – | – |
| Nc1cccc2sccc12 | 50 µg/mL (≈ 335 µM) | – | – |
| c1ccc2c(c1)CCN2c1ccc2sc3ccccc3c2c1 | > 100 µg/mL | – | – |
| c1ccc(Nc2ccc3sc4ccccc4c3c2)cc1 | > 100 µg/mL | – | – |
| c1ccc2c(c1)sc1ccc(NC3CCCCC3)cc12 | > 100 µg/mL | – | – |
| c1ccc2c(c1)sc1ccc(N3CCOCC3)cc12 | > 100 µg/mL | – | – |
| NNC(=O)c1ccncc1 [ISONIAZID] | 3.13 µg/mL (≈ 22.8 µM) | – | – |
| OB(O)c1ccc2sc3ccccc3c2c1 | 50 µg/mL (≈ 219 µM) | – | – |
| c1ccc2c(c1)CCCN2c1ccc2sc3ccccc3c2c1 | > 100 µg/mL | – | – |
| Nc1ccc2sc3ccc(N)cc3c2c1 | > 100 µg/mL | – | – |
| Nc1cccc2c1sc1ccccc12 | 12.5 µg/mL (≈ 62.7 µM) | – | – |
| Nc1ccc2occc2c1 | 1.56 µg/mL (≈ 11.7 µM) | – | Toxic |
| Nc1ccc2[nH]ccc2c1 | > 100 µg/mL | – | – |
